Assay results published in US11344512B2, “Titration of tapentadol” (Grünenthal GmbH, priority 2007, dated 2022).

Key:
[1] = system: patients with chronic low back pain or chronic pain from osteoarthritis of the knee or hip; test: Example E-3: opioid withdrawal after 90 days treatment (COWS and SOWS questionnaires), phase III trial; type: in vivo, human (patients); details: for patients reporting mild-to-moderate withdrawal symptoms (COWS assessment): 2 to 4 days after study medication ceased, after 90 days treatment
Protocol: The symptoms of opioid withdrawal following long-term treatment (90 days) with tapentadol immediate release (IR) compared with oxycodone IR were evaluated in a randomized, double-blind, active-control, parallel group, flexible dose, multicenter phase III trial of patients with chronic low back pain of chronic pain from osteoarthritis of the knee or hip. Patients (N=849) were randomly assigned in a 4:1 ratio to a flexible dose of tapentadol IR (50 or 100 mg/dose; maximum 600 mg/day) or oxycodone IR (10 or 15 mg/dose; maximum 90 mg/day) every 4 to 6 hours. Symptoms of withdrawal following opioid discontinuation were examined using the Clinical Opioid Withdrawal Score (COWS) and the Subjective Opioid Withdrawal Score (SOWS) questionnaires. […] The mean total SOWS score, 2 to 4 days after last study drug intake, was lower for the tapentadol IR group (6.9) than the oxycodone IR group (8.7). […] In addition, 5 or more days after last study drug intake, the mean total SOWS score was 6.3 for the tapentadol IR group and 7.0 for the oxycodone IR group (no significant difference).

[2] = system: patients with osteoarthritis of hip/knee or chronic low back pain; test: Clinical studies C-1/C-2 (without titration) and E-1/E-2 (forced titration): occurrence of somnolence; type: in vivo, human (patients)
Protocol: A randomized, double-blind, multiple dose, parallel-group study assessing the efficacy and safety of 3 dosages of tapentadol prolonged release (bid) (25 mg, 50 mg and 100 mg) compared to oxycodone prolonged release (bid) 20 mg and placebo over 28 days in patients with hip and/or knee-joint osteoarthritis. Subjects: 40-75 years old, male and female patients. 375 patients, randomized to placebo, standard opioid, tapentadol. Treatment Regimen: Day 1 only evening dose Day 2—Day 28 bid Day 29 only morning dose.
A randomized, double-blind, multiple dose, parallel-group study assessing the efficacy and safety of tapentadol prolonged release 25, 50 and 100 mg compared to placebo and tramadol prolonged release 100 mg in patients with chronic low back pain.
Male and female patients 18-75 years old with a history of low back pain of at least 6 months, requiring regular treatment on at least 60 out of last 90 days.
430 patients, randomized to placebo, tramadol 100 mg prolonged release, 3 dosages tapentadol.
A randomized, double-blind, parallel-group study assessing the efficacy and safety of two titration regimen of tapentadol prolonged release (25 mg, 50 mg, 100 mg and 100 mg, 150 mg, 200 mg of free base of tapentadol) given orally twice daily (bid) compared to placebo and oxycodone controlled release (10 mg, 10 mg, 20 mg) in patients with chronic pain due to osteoarthritis of the knee. Subjects: Male and female patients≥40 years old with a diagnosis of osteoarthritis of the knee Treatment Regimen: Patients started with the lowest dose of the titration phase for the first 3 days and up-titrated to the intermediate dose on day 4. Subjects were maintained at the intermediate dose for the next 11 days. After these 11 days patients started the maintenance phase and received the highest dose of each regimen for the remaining 14 days. Subjects who were unable to tolerate the highest dose after having received that dose for at least 3 days were allowed to down titrate to the intermediate dose. Down titration was permitted only once during the fixed-dose maintenance phase.
A randomized, double-blind, parallel-group study that compares the efficacy and safety of two titration regimens of tapentadol prolonged release (25 mg-50 mg-100 mg and 100 mg-150 mg-200 mg) given orally twice daily (bid) and tramadol prolonged release (100 mg-150 mg-200 mg) p.o. bid to placebo in patients with moderate to severe chronic pain due to chronic low back pain. Subjects: Male and female patients≥18 years old with a diagnosis of low back pain of at least 3 months. Treatment Regimen:
Patients took the first dose and continued on the lowest dose in their treatment regimen for 3 days (i.e. 6 doses). After the sixth dose, patients titrated to the intermediate dose in their treatment regimen and continued on this intermediate dose for 11 days (i.e. 22 doses). Up-titration was mandatory. Patients who were unable to tolerate study medication were removed from the study. After the twenty second dose, patients titrated to the final dose in their treatment regimen and continued on this final dose for 14 days.
Concentration measurements were taken from comparative examples C-1 and C-2, both without dose titration. Examples E-1 and E-2 in the same indications were used to get PK/PD information under dose titration. In all studies adverse events were noted.

[3] = system: pain; test: Preliminary clinical trials: pain treating effect (VAS) versus serum concentration of tapentadol; type: in vivo, human (individuals)
Protocol: In one preferred embodiment dose a is below the pharmaceutically effective pain treating dose of tapentadol. The pharmaceutically effective pain treating dose of tapentadol may vary individually and can be determined by routine experimentation for a given subject. Usually, the minimum pharmaceutically effective pain treating dose will be above 50 mg twice daily (bid). Preferably, effective pain treatment is to be regarded as at least 5% decrease in pain in an individual, more preferably at least 10%, still more preferably at least 15% and most preferably at least 20% decrease in pain in an individual, taking into account that low serum concentrations of tapentadol suffice to show an effect in individuals that are relatively sensitive and higher serum concentrations of tapentadol are needed to show an effect in persons that are relatively unsensitive.

[4] = system: adverse effects; details: cited from earlier work
[5] = 2 to 4 days after last study drug intake
[6] = 5 or more days after last study drug intake

## COc1ccc2c3c1O[C@H]1C(=O)CC[C@@]4(O)[C@@H](C2)N(C)CC[C@]314 [oxycodone IR, reference compound]
[1]; [5]
  mean total SOWS score: 8.7
[1]
  patients reporting mild-to-moderate withdrawal symptoms (COWS assessment): 29%
[1]; [6]
  mean total SOWS score: 7.0

## COc1ccc2c3c1O[C@H]1C(=O)CC[C@@]4(O)[C@@H](C2)N(C)CC[C@]314 [oxycodone, reference compound]
[2]; FIG. 8, oxycodone controlled release
  effect of titration regimen of example E-1 on suppression of somnolence: no comparable effect on the suppression of somnolence

## CC[C@@H](c1cccc(O)c1)[C@@H](C)CN(C)C [tapentadol IR]
[1]; [5]
  mean total SOWS score: 6.9
[1]
  patients reporting mild-to-moderate withdrawal symptoms (COWS assessment): 17%
[1]; [6]
  mean total SOWS score: 6.3

## CC[C@@H](c1cccc(O)c1)[C@@H](C)CN(C)C [tapentadol, (−)-(1R,2R)-3-(3-dimethylamino-1-ethyl-2-methyl-propyl)-phenol]
[3]; at serum concentration about 5 ng/ml
  visual analog scale (VAS) in a population mean: approximately −2 mm
[3]; at serum concentration about 300 ng/ml
  visual analog scale (VAS) in a population mean: approximately −15 mm
[2]; FIG. 5 and 6, prolonged release
  concentration at which adverse events (somnolence) occurred, without titration (C-1, C-2) compared to dose titration (E-1, E-2): much lower concentration
[2]; studies using forced titration, total daily dose 200 mg, pooled data
  somnolence occurred in % of patients: 6%
[2]; studies using forced titration, total daily dose 400 mg, pooled data
  somnolence occurred in % of patients: 12%
[2]; studies without titration, total daily dose 172 mg, pooled data from both studies
  somnolence occurred in % of patients: 4.3%

## COc1cccc(C2(O)CCCCC2CN(C)C)c1 (stereo not drawn) [tramadol]
[4]
  frequency of dizziness, nausea and vomiting with slow titration: reduce the frequency
  frequency of somnolence with slow titration: not significantly reduced
